Here are results for one compound from EP0535155B1, “LIBRARIES OF MODIFIED PEPTIDES WITH PROTEASE RESISTANCE” (CHIRON CORPORATION, priority 1990, dated 2002).

For data set [1], the system named is trypsin. The experiment in a line: Proteolysis of peptoids and peptides by trypsin (RP-HPLC). To be noted: trypsin (isolated protease) in Tris buffer, pH 8.
Procedure: (§1) Each substrate was dissolved to 0.5 mg/mL in 10% DMSO, 100 mM Tris, 100 mM CaCl2, pH 8.0. Either trypsin or chymotrypsin was dissolved to 1 mg/mL in 0.001M HCI. At t=0, 10λ of enzyme or 0.001M HCI was added to 200λ of either the peptoid or peptide solution and incubated at 37°C. At the appropriate times, 50λ was removed and quenched with 50λ of 20% HOAc and assayed by HPLC on a C4 column with detection at 280 nm. The data below is given in percent area remaining on parent peak.
The subject of data set [2] is chymotrypsin. The data set is described as follows: Proteolysis of peptoids and peptides by chymotrypsin (RP-HPLC). To be noted: chymotrypsin (isolated protease) in Tris buffer, pH 8.
Procedure: as §1
Data set [3] concerns chymotrypsin.
Procedure: as §1
A short description of another data set: physchem. To be noted: buffer or solvent, pH 8.
The test system of data set [4] is chymotrypsin. The experiment in a line: in vitro. To be noted: isolated enzyme chymotrypsin, pH 8.
Procedure: as §1
Data set [5] deals with trypsin.
Procedure: as §1

Each structure is given as a SMILES string. Where a SMILES comes first, the peptide text is derived from it. The star is where a group is joined. Fmoc = O=C(OCC1c2ccccc2-c2ccccc21)*

Procedure for physchem: as §1

As usually defined, the fraction remaining is the share of the starting amount still present when the sample was taken. Take `CC(C)C[C@H](NC(=O)OCC1c2ccccc2-c2ccccc21)C(=O)N[C@@H](CC(=O)O)C(=O)N[C@@H](Cc1ccccc1)C(=O)N[C@@H](CO)C(=O)N[C@@H](CCCCN)C(=O)NCC(=O)O` [PEPTIDE, FMOC-LDFSKG-OH] (Fmoc-LDFSKG-OH): the results for the amount remaining at 5 min, 0.476 mg/mL in the data set with trypsin [1], in the data set with chymotrypsin [2] and in “physchem” were 0%, 75% and 100%, respectively. Also, the results for the share remaining at 10 min, 0.476 mg/mL with trypsin [1], in the data set with chymotrypsin [2] and in “physchem” were 0%, 41% and 100%, respectively. Also, the share remaining at 3 h, 0.476 mg/mL is 0% in the data set with trypsin [1], less than 100% in “physchem” and 0% in the data set on chymotrypsin [4]. For the same compound, the “cleavage at the second site” value in the data set on chymotrypsin [3] is reported as “not cbmpletely cleaved”. Besides, the metabolised at 10 min, 0.476 mg/mL in the data set on chymotrypsin [4] is approximately 60%. Further, the “time in which cleavage was complete” value in the data set on trypsin [5] is not above 5 min.
